Results as given in US20220062240A1, “METHODS OF TREATING CANCER USING A CLK INHIBITOR” (BioSplice Therapeutics, Inc., priority 2018, published 2022).
pEC50: −log10 of the molar value. Like-named read-outs stand apart in the source and are kept apart here.

Legend:
[1] = system: pancreatic cancer (8 cell lines); assay: CellTiter-Glo Viability Assay, pancreatic cancer; assay type: cell-based; details: Homo sapiens, inhibition of cancer cell proliferation
[2] = biological target: T1, CLK2 (Homo sapiens, UniProt P49760); assay: CLK2 kinase activity assay (Z-lyte, Ser/Thr 6 peptide); assay type: biochemical; details: recombinant CLK2 kinase, ATP 60 μM; read-out: EC50
T1 construct: purchased Thermo Fisher (Life Technologies), Z'-LYTE Kinase Assay Kits
T1 sequence (P49760 whole entry): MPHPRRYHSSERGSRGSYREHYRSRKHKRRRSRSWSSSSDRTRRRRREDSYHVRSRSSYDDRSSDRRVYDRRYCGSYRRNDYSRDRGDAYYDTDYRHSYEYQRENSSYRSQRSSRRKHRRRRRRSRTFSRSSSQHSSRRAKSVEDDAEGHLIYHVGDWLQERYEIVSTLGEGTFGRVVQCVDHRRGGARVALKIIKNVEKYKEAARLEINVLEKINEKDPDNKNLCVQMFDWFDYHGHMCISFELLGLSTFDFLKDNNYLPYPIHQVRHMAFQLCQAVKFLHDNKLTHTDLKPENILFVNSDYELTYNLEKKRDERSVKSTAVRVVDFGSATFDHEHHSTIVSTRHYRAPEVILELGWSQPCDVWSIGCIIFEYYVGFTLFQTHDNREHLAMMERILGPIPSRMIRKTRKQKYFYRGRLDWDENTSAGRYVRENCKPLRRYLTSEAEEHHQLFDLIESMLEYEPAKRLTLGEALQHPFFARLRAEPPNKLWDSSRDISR
Method: All reactions were performed in duplicate.

[3] = system: haematopoietic & lymphoid tumors (13 cell lines); assay: CellTiter-Glo Viability Assay, haematopoietic & lymphoid tumors; assay type: cell-based; details: Homo sapiens, inhibition of cancer cell proliferation
[4] = system: T47D; assay: CellTiter-Glo Viability Assay, breast cancer; assay type: cell-based; details: Homo sapiens, 96 h, breast cancer, four days, read-out: EC50
[5] = system: MCF7; assay: CellTiter-Glo Viability Assay, breast cancer; assay type: cell-based; details: Homo sapiens, 96 h; MCF7, breast cancer, four days; read-out: EC50
[6] = system: BT-549; assay: CellTiter-Glo Viability Assay, breast cancer; assay type: cell-based; details: Homo sapiens, 96 h; BT-549, breast cancer, four days; read-out: EC50
[7] = system: MDA-MB-231-Luc; assay: CellTiter-Glo Viability Assay, breast cancer; assay type: cell-based; details: Homo sapiens, 96 h; MDA-MB-231-Luc, breast cancer, four days; read-out: EC50
[8] = system: DU4475; assay: CellTiter-Glo Viability Assay, breast cancer; assay type: cell-based; details: Homo sapiens, DU-4475, 96 h; DU4475, breast cancer, four days; read-out: EC50
[9] = system: CAMA1; assay: CellTiter-Glo Viability Assay, breast cancer; assay type: cell-based; details: Homo sapiens, CAMA-1, 96 h; CAMA1, breast cancer, four days; read-out: EC50
[10] = system: ZR-75-1; assay: CellTiter-Glo Viability Assay, breast cancer; assay type: cell-based; details: Homo sapiens, 96 h; ZR-75-1, breast cancer, four days; read-out: EC50
[11] = system: HCC1599; assay: CellTiter-Glo Viability Assay, breast cancer; assay type: cell-based; details: Homo sapiens, 96 h; HCC1599, breast cancer, four days; read-out: EC50
[12] = system: lung cancer (4 cell lines); assay: CellTiter-Glo Viability Assay, lung cancer; assay type: cell-based; details: Homo sapiens, inhibition of cancer cell proliferation
[13] = system: all 50 cell lines; assay: CellTiter-Glo Viability Assay, average across all cell lines; assay type: cell-based; details: Homo sapiens; across all 50 cell lines; read-out: average EC50 for inhibition of cancer cell proliferation
Summary of the method: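 Proliferation of a multi-tissue human cancer line panel is assessed over four days at 37° C and 5% CO2, seeding 300-3,000 cells/well. Viability is quantified by CellTiter-Glo luminescence, and EC50 values are calculated.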

[14] = system: ovarian cancer (4 cell lines); assay: CellTiter-Glo Viability Assay, ovarian cancer; assay type: cell-based; details: Homo sapiens, inhibition of cancer cell proliferation
[15] = system: liver cancer (3 cell lines); assay: CellTiter-Glo Viability Assay, liver cancer; assay type: cell-based; details: Homo sapiens, inhibition of cancer cell proliferation
[16] = system: colorectal cancer (6 cell lines); assay: CellTiter-Glo Viability Assay, colorectal cancer; assay type: cell-based; details: Homo sapiens, inhibition of cancer cell proliferation
[17] = system: prostate cancer (5 cell lines); assay: CellTiter-Glo Viability Assay, prostate cancer; assay type: cell-based; details: Homo sapiens

CN1CCC(Oc2ccc(NC(=O)c3n[nH]cc3/C=C/c3cccnc3)cn2)CC1 [Compound 93]
pEC50 ([1]; BXPC-3, BxPC3 cell line, read-out: Pancreatic cancer, EC50 BxPC3): 5.04 | pEC50 ([1]; CAPAN-1, Capan1 cell line, read-out: Pancreatic cancer, EC50 Capan1): < 5.00 | pEC50 ([1]; Capan-2, Capan2 cell line, read-out: Pancreatic cancer, EC50 Capan2): < 5.00 | pEC50 ([1]; MIA PaCa-2 cell line, read-out: Pancreatic cancer, EC50 MIA PaCa-2): 5.70 | pEC50 ([1]; PANC 05.04 cell line, read-out: Pancreatic cancer, EC50 PANC 05.04): < 5.00 | pEC50 ([1]; PANC-1 cell line, read-out: Pancreatic cancer, EC50 PANC-1): < 5.00 | pEC50 ([1]; UPAFII cell line, read-out: Pancreatic cancer, EC50 UPAFII): 5.16 | pEC50 [2]: 8.43 | EC50 ([3]; DND41, DND-41 cell line, read-out: Haematopoietic & Lymphoid tumors, EC50 (μM) DND-41): 4.78 µM | EC50 ([3]; MV4-11, MV-4-11 cell line, read-out: Haematopoietic & Lymphoid tumors, EC50 (μM) MV-4-11): 0.273 µM | EC50 ([3]; Rec1, REC-1 cell line, read-out: Haematopoietic & Lymphoid tumors, EC50 (μM) REC-1): 1.26 µM | EC50 ([3]; SU-DHL-4, SUDHL4 cell line, read-out: Haematopoietic & Lymphoid tumors, EC50 (μM) SUDHL4): 2.56 µM | EC50 ([3]; HL-60 cell line, read-out: Haematopoietic & Lymphoid tumors, EC50 (μM) HL-60): 4.59 µM | EC50 ([3]; JM1 cell line, read-out: Haematopoietic & Lymphoid tumors, EC50 (μM) JM1): 0.765 µM | EC50 ([3]; JURKAT, Clone E6-1 cell line, read-out: Haematopoietic & Lymphoid tumors, EC50 (μM) JURKAT, Clone E6-1): 3.73 µM | EC50 ([3]; JeKo-1 cell line, read-out: Haematopoietic & Lymphoid tumors, EC50 (μM) JeKo-1): 0.706 µM | EC50 ([3]; KASUMI-1 cell line, read-out: Haematopoietic & Lymphoid tumors, EC50 (μM) KASUMI-1): 0.479 µM | EC50 ([3]; Loucy cell line, read-out: Haematopoietic & Lymphoid tumors, EC50 (μM) Loucy): 1.96 µM | EC50 ([3]; MOLT-4 cell line, read-out: Haematopoietic & Lymphoid tumors, EC50 (μM) MOLT-4): 5.56 µM | EC50 ([3]; TF-1 cell line, read-out: Haematopoietic & Lymphoid tumors, EC50 (μM) TF-1): 3.59 µM | EC50 ([3]; TOLEDO cell line, read-out: Haematopoietic & Lymphoid tumors, EC50 (μM) TOLEDO): 0.886 µM | pEC50 [4]: 6.20 | pEC50 [5]: < 5.00 | pEC50 [6]: 5.43 | pEC50 [7]: 5.17 | pEC50 [8]: 5.99 | pEC50 [9]: 5.11 | pEC50 [10]: 5.17 | pEC50 [11]: 6.62 | EC50 ([12]; A-427, A427 cell line, read-out: Lung cancer, EC50 (μM) A427): 4.12 µM | EC50 ([12]; HCC78, HCC-78 cell line, read-out: Lung cancer, EC50 (μM) HCC-78): > 10 µM | EC50 ([12]; NCI-H460 cell line, read-out: Lung cancer, EC50 (μM) NCI-H460): 5.17 µM | EC50 ([12]; NCI-H522 cell line, read-out: Lung cancer, EC50 (μM) NCI-H522): 1.42 µM | pEC50 [13]: 5.34 | EC50 ([14]; PA-1, PA1 cell line, read-out: Ovarian cancer, EC50 (μM) PA1): 5.95 µM | EC50 ([14]; TOV112D, TOV-112D cell line, read-out: Ovarian cancer, EC50 (μM) TOV-112D): 1.55 µM | EC50 ([14]; OV-90 cell line, read-out: Ovarian cancer, EC50 (μM) OV-90): > 10 µM | EC50 ([14]; OVCAR-3 cell line, read-out: Ovarian cancer, EC50 (μM) OVCAR-3): 2.54 µM | pEC50 ([15]; SNU-398, SNU398 cell line, read-out: Liver cancer, EC50 SNU398): 5.69 | pEC50 ([15]; HEPG2 cell line, read-out: Liver cancer, EC50 HEPG2): 5.44 | pEC50 ([15]; PLC/PRF/5 cell line, read-out: Liver cancer, EC50 PLC/PRF/5): 5.00 | EC50 ([16]; HCT-116, HCT116 cell line, read-out: Colorectal cancer, EC50 (μM) HCT116): 1.88 µM | EC50 ([16]; HT-29, HT29 cell line, read-out: Colorectal cancer, EC50 (μM) HT29): 5.48 µM | EC50 ([16]; SW-620, SW620 cell line, read-out: Colorectal cancer, EC50 (μM) SW620): 1.36 µM | EC50 ([16]; DLD-1 cell line, read-out: Colorectal cancer, EC50 (μM) DLD-1): 1.35 µM | EC50 ([16]; SW48 cell line, read-out: Colorectal cancer, EC50 (μM) SW48): 0.577 µM | EC50 ([16]; SW480 cell line, read-out: Colorectal cancer, EC50 (μM) SW480): 3.5 µM | pEC50 ([17]; DU-145, read-out: Prostate cancer EC50 Du-145): 5.04 | pEC50 ([17]; PC-3, PC3 cell line, inhibition of cancer cell proliferation, read-out: Prostate cancer EC50 PC3): 5.03 | pEC50 ([17]; 22Rv1 cell line, inhibition of cancer cell proliferation, read-out: Prostate cancer EC50 22Rv1): 5.97 | pEC50 ([17]; LNCap clone FGC cell line, inhibition of cancer cell proliferation, read-out: Prostate cancer EC50 LNCap clone FGC): 5.06 | pEC50 ([17]; VCaP (Sigma) cell line, inhibition of cancer cell proliferation, read-out: Prostate cancer EC50 VCaP (Sigma)): 5.69
